Marks after values point to notes of the source that are not given here.
Experiments:
db/db mice [1] = assay: Chronic administration, random blood glucose in db/db mice; format: in vivo, mouse; settings: for random blood glucose Pre: before administration; for Hypoglycemic rate % week 1 / Hypoglycemic rate % week 2 / Hypoglycemic rate % week 3 / Hypoglycemic rate % week 4: random blood glucose
Experimental: (§1) Oral gavage administrated, daily dose volume was 10 mL/kg, administered once daily. Administration time was 9: 00-10:00 daily, and the administration period was 5 weeks.
The random blood glucose of mice in the normal control group, model control group, test substance administration group and positive control group were determined on the 7th, 14th, 21st, 28th day (9: 00-10:00) every week after the first administration, and food was removed and after 6 hours of starvation, the fasting blood glucose in each group was measured. Free drinking during the hunger process. The rate of decrease of blood glucose was calculated according to the following formula: Average hypoglycemic rate %=(Blood glucose of model control group−Blood glucose of administration group)/Model control group×100%

SD rats = assay: Acute administration of A28 at multiple doses, urinary glucose of SD rats; format: in vivo, rat; settings: within 24 h
Experimental: (1) 72 normal male SD rats were selected and randomly divided into 9 groups according to body weight and blood glucose, 8 in each group. […] After oral gavage, the rats were placed in rats metabolic cages, and urine was collected after 24 h, and the urine volume was recorded, then preserved under −20° C. Rats take food and water freely during the experimental period.
(2) Index Determination: Glucose levels in urine are measured by the glucose assay kit.

db/db mice [2] = assay: Chronic administration, oral glucose tolerance in db/db mice; format: in vivo, mouse; settings: for Blood glucose AUC0-2 h / Blood glucose (mmol/L) 0 min / Blood glucose (mmol/L) 15 min / Blood glucose (mmol/L) 30 min / Blood glucose (mmol/L) 60 min / Blood glucose (mmol/L) 90 min / Blood glucose (mmol/L) 120 min / AUC0-2 h reduction rate (%): glucose tolerance, chronic administration; for AUC0-2 h reduction rate (%): vs vehicle
Experimental: as §1
The glucose tolerance of mice of normal control group, model control group, test substance group and positive control group were determined 3 weeks after administration of drug, oral administrated with 1.5 g/kg of glucose, and taken 2 μL of blood on the tail. 4 μL of normal saline was added to 96 well sharp bottom plate to dilute evenly, and then the blood glucose was measured. The blood glucose levels before the sugar administration and at 15, 30, 60, 90 and 120 min after the sugar administration were measured. The true blood glucose level was calculated and the area under the blood glucose curve within 120 min was calculated by the following formula: AUC0-2h (mmol/L·h)=(BG0+BG15)×0.25/2+(BG15+BG30)×0.25/2+(BG30+BG60)×0.5/2+(BG60+[…])×1.0/2 Note: BG0, BG15, BG30, BG60 and BG120 represent the blood glucose levels before the sugar administration, and at 15, 30, 60, and 120 min after sugar administration, respectively. Average hypoglycemic rate %=(solvent control group AUC0-2h−administration group AUC0-2h)/solvent control group AUC0-2h*100%

C57BL/6J mice = assay: Acute administration of A28 at multiple doses, oral glucose tolerance of C57BL/6J mice; format: in vivo, mouse; settings: for AUC0-2 h / Average hypoglycemic rate % (0-2 h) / Blood glucose level 15 min / Blood glucose level 30 min / Blood glucose level 60 min / Blood glucose level 90 min / Blood glucose level 120 min / Blood glucose level 0: C57BL/6J mice OGTT; for Blood glucose level 0: before sugar
Experimental: (1) Experimental Methods: 56 C57BL/6J mice were selected and starved for 6 h, took water freely, then randomly divided into 7 groups according to body weight and random blood glucose, 8 rats in each group. […] Average hypoglycemic rate %=(AUC0-120 min of solvent control group−AUC0-120 min of administration group)/(AUC0-120 min of solvent control group−AUC0-120 min of blank control group)*100%

db/db mice [3] = assay: Chronic administration, glycosylated hemoglobin level in db/db mice; format: in vivo, mouse; settings: for HbA1c Decline rate %: vs vehicle
Experimental: as §1
In the end of the above experiment, the orbital blood was taken from animals of each group and divided into two tubes, one was centrifuged to take blood cells for the determination of glycated hemoglobin content, the other tube was added with 25 μL EDTA in advance, centrifuged and the supernatant was taken to determine the indexes such as triglyceride (TG), total cholesterol (TC), total protein (TP), albumin, low density lipoprotein (LDL), high density lipoprotein (HDL), non-esterified fatty acid (NEFA) and so on.

## CCc1ccc(Cc2cc3c(cc2Cl)CO[C@]32O[C@H](C)[C@@H](O)[C@H](O)[C@H]2O)s1 [Example A28, (1S,3′R,4′S,5′S,6′R)-6′-methyl-6-((5-ethylthienyl)-2-methyl)-5-chloro-3′,4′,5′,6′-tetrahydro-3H-spiro[isobenzofuran-1,2′-pyran]-3′,4′,5′-triol]
db/db mice [1]; 0.3 mg/kg once daily oral
  random blood glucose week 1: 16.9 ± 1.3 mmol/L
  random blood glucose week 2: 15.7 ± 1.3 mmol/L
  random blood glucose week 3: 16.7 ± 1.5 mmol/L
  random blood glucose week 4: 19.1 ± 1.6 mmol/L
  random blood glucose Pre: 17.9 ± 1.4 mmol/L
  Hypoglycemic rate % week 1: 14.0%
  Hypoglycemic rate % week 2: 19.1%
  Hypoglycemic rate % week 3: 18.0%
  Hypoglycemic rate % week 4: 7.8%
db/db mice [1]; 1 mg/kg once daily oral
  random blood glucose week 1: 16.1 ± 1.0 mmol/L
  random blood glucose week 2: 16.3 ± 1.2 mmol/L
  random blood glucose week 3: 15.9 ± 1.1 mmol/L
  random blood glucose week 4: 15.1 ± 1.4 mmol/L
  random blood glucose Pre: 16.8 ± 1.2 mmol/L
  Hypoglycemic rate % week 1: 17.9%
  Hypoglycemic rate % week 2: 16.0%
  Hypoglycemic rate % week 3: 21.8%
  Hypoglycemic rate % week 4: 27.0%
db/db mice [1]; 3 mg/kg once daily oral
  random blood glucose week 1: 14.7 ± 0.9 mmol/L
  random blood glucose week 2: 13.0 ± 0.8 mmol/L
  random blood glucose week 3: 12.4 ± 1.0 mmol/L
  random blood glucose week 4: 13.2 ± 0.9 mmol/L
  random blood glucose Pre: 18.7 ± 1.2 mmol/L
  Hypoglycemic rate % week 1: 25.4%
  Hypoglycemic rate % week 2: 33.1%
  Hypoglycemic rate % week 3: 39.0%
  Hypoglycemic rate % week 4: 36.6%
db/db mice [1]; 10 mg/kg once daily oral
  random blood glucose week 1: 12.9 ± 0.6 mmol/L
  random blood glucose week 2: 10.6 ± 0.5 mmol/L
  random blood glucose week 3: 9.1 ± 0.4 mmol/L
  random blood glucose week 4: 9.7 ± 0.7 mmol/L
  random blood glucose Pre: 18.3 ± 1.6 mmol/L
  Hypoglycemic rate % week 1: 34.3%
  Hypoglycemic rate % week 2: 45.3%
  Hypoglycemic rate % week 3: 55.3%
  Hypoglycemic rate % week 4: 53.1%
SD rats; oral 0.3 mg/kg
  Total sugar excretion: 10.55 ± 10.05 mg/100 g
  Urine concentration: 8.70 ± 1.98 mmol/L
  Urine volume: 16.25 ± 1.50 mL
SD rats; oral 1 mg/kg
  Total sugar excretion: 149.08 ± 0.00 mg/100 g
  Urine concentration: 105.56 ± 0.00 mmol/L
  Urine volume: 19.25 ± 0.00 mL
SD rats; oral 3 mg/kg
  Total sugar excretion: 441.27 ± 50.75 mg/100 g
  Urine concentration: 257.69 ± 32.96 mmol/L
  Urine volume: 25.00 ± 2.06 mL
SD rats; oral 10 mg/kg
  Total sugar excretion: 1028.20 ± 83.93 mg/100 g
  Urine concentration: 359.48 ± 29.43 mmol/L
  Urine volume: 39.75 ± 1.57 mL
SD rats; single oral 0.3, 1, 3 and 10 mg/kg
  urine glucose excretion: significantly promoted in a dose-dependent manner
db/db mice [2]; after 3 weeks of chronic administration
  improvement of oral glucose tolerance compared with Dapagliflozin: stronger than that of Dapagliflozin of the same dose
db/db mice [2]; dose 0.3 mg/kg
  Blood glucose AUC0-2 h: 6.3 ± 1.3
  Blood glucose (mmol/L) 0 min: 12.3 ± 0.9 mmol/L
  Blood glucose (mmol/L) 15 min: 22.7 ± 1.4 mmol/L
  Blood glucose (mmol/L) 30 min: 21.4 ± 1.1 mmol/L
  Blood glucose (mmol/L) 60 min: 13.5 ± 0.7 mmol/L
  Blood glucose (mmol/L) 90 min: 12.5 ± 0.9* * mmol/L
  Blood glucose (mmol/L) 120 min: 10.9 ± 1.0* * mmol/L
  AUC0-2 h reduction rate (%): 57.2%
db/db mice [2]; dose 1 mg/kg
  Blood glucose AUC0-2 h: 4.7 ± 1.9
  Blood glucose (mmol/L) 0 min: 10.4 ± 1.0 mmol/L
  Blood glucose (mmol/L) 15 min: 16.9 ± 0.8 mmol/L
  Blood glucose (mmol/L) 30 min: 18.7 ± 0.7 mmol/L
  Blood glucose (mmol/L) 60 min: 11.1 ± 0.5 mmol/L
  Blood glucose (mmol/L) 90 min: 10.4 ± 0.6* * mmol/L
  Blood glucose (mmol/L) 120 min: 8.7 ± 0.5 mmol/L
  AUC0-2 h reduction rate (%): 68.2%
db/db mice [2]; dose 3 mg/kg
  Blood glucose AUC0-2 h: 6.1 ± 0.9
  Blood glucose (mmol/L) 0 min: 8.1 ± 1.0 mmol/L
  Blood glucose (mmol/L) 15 min: 16.1 ± 2.4 mmol/L
  Blood glucose (mmol/L) 30 min: 17.4 ± 2.6 mmol/L
  Blood glucose (mmol/L) 60 min: 9.1 ± 1.0 mmol/L
  Blood glucose (mmol/L) 90 min: 8.9 ± 0.8 mmol/L
  Blood glucose (mmol/L) 120 min: 6.9 ± 0.8 mmol/L
  AUC0-2 h reduction rate (%): 58.9%
db/db mice [2]; dose 10 mg/kg
  Blood glucose AUC0-2 h: 2.3 ± 0.8
  Blood glucose (mmol/L) 0 min: 7.2 ± 0.6 mmol/L
  Blood glucose (mmol/L) 15 min: 11.3 ± 0.6 mmol/L
  Blood glucose (mmol/L) 30 min: 12.3 ± 1.0 mmol/L
  Blood glucose (mmol/L) 60 min: 7.1 ± 0.5 mmol/L
  Blood glucose (mmol/L) 90 min: 6.5 ± 0.3 mmol/L
  Blood glucose (mmol/L) 120 min: 6.2 ± 0.5 mmol/L
  AUC0-2 h reduction rate (%): 84.6%
C57BL/6J mice; oral 0.3 mg/kg
  AUC0-2 h: 21.6 ± 1.5 mmol·h/L
  Average hypoglycemic rate % (0-2 h): 2.0%
  Blood glucose level 15 min: 14.2 ± 2.1 mmol/L
  Blood glucose level 30 min: 13.0 ± 1.7 mmol/L
  Blood glucose level 60 min: 11.2 ± 0.8 mmol/L
  Blood glucose level 90 min: 9.1 ± 1.0 mmol/L
  Blood glucose level 120 min: 8.3 ± 1.0 mmol/L
  Blood glucose level 0: 7.5 ± 0.4 mmol/L
C57BL/6J mice; oral 1 mg/kg
  AUC0-2 h: 19.8 ± 1.0 mmol·h/L
  Average hypoglycemic rate % (0-2 h): 10.0%
  Blood glucose level 15 min: 12.5 ± 1.6 mmol/L
  Blood glucose level 30 min: 12.0 ± 0.8 mmol/L
  Blood glucose level 60 min: 9.9 ± 0.9 mmol/L
  Blood glucose level 90 min: 8.7 ± 0.7 mmol/L
  Blood glucose level 120 min: 7.9 ± 0.7 mmol/L
  Blood glucose level 0: 7.1 ± 0.6 mmol/L
C57BL/6J mice; oral 3 mg/kg
  AUC0-2 h: 18.5 ± 0.6 mmol·h/L
  Average hypoglycemic rate % (0-2 h): 16.2%
  Blood glucose level 15 min: 10.4 ± 1.0 mmol/L
  Blood glucose level 30 min: 11.3 ± 1.1 mmol/L
  Blood glucose level 60 min: 9.5 ± 0.7 mmol/L
  Blood glucose level 90 min: 8.4 ± 0.7 mmol/L
  Blood glucose level 120 min: 7.4 ± 0.6 mmol/L
  Blood glucose level 0: 6.4 ± 0.7 mmol/L
C57BL/6J mice; C57BL/6J mice, once administrated
  effective dose, reduction of blood glucose AUC within 2 h after sugar: 1 mg/kg
db/db mice [3]; dose 0.3 mg/kg
  HbA1c (%): 5.83 ± 0.36 %
  HbA1c Decline rate %: 23.2%
db/db mice [3]; dose 1 mg/kg
  HbA1c (%): 6.02 ± 0.30 %
  HbA1c Decline rate %: 20.7%
db/db mice [3]; dose 3 mg/kg
  HbA1c (%): 4.95 ± 0.37 %
  HbA1c Decline rate %: 34.8%
db/db mice [3]; dose 10 mg/kg
  HbA1c (%): 4.50 ± 0.27 %
  HbA1c Decline rate %: 40.7%
